# Measured values reported in patent US12344610B2, “APOL1 inhibitors and methods of use” (Maze Therapeutics, Inc., priority 2022, dated 2025).
# Test system: human immortalized podocytes inducibly expressing APOL1 G2
# Test: APOL1 G2 podocyte cell rescue assay (Example B4)
# Format: cell-based
# Conditions: Homo sapiens, differentiated human podocytes, doxycycline-induced APOL1 G2, CellTiter-Glo; geometric mean of at least 2 runs; † = single run
# Procedure, shortened: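 Differentiated hTERT-immortalized podocytes (clone D10) with doxycycline-inducible C-terminally HiBiT-tagged APOL1 G2, 6,000 cells/well, treated with doxycycline plus 8-point 3-fold compound series (0.4% DMSO) for 95 h at 37 °C. Viability by CellTiter-Glo luminescence; EC50 as geometric mean of ≥2 runs, each in duplicate.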
row,Compound,EC50 [nM]
1,"C[C@]1(O)C[C@@H](N2C(=O)Cc3cc(OCCN4CCC5(CC4)C(=O)Nc4ccc(Cl)cc45)cnc32)C1 [Compound 345, 5-chloro-1′-[2-({2-oxo-1-[(cis)-3-hydroxy-3-methylcyclobutyl]-1H,2H,3H-pyrrolo[2,3-b]pyridin-5-yl}oxy)ethyl]-1,2-dihydrospiro[indole-3,4′-piperidin]-2-one]",15.8
2,"CS(=O)(=O)C1(c2ncc(OCCN3CCC4(CC3)C(=O)Nc3ccc(Cl)cc34)cn2)CC1 [Compound 4, 5-chloro-1′-(2-{[2-(1-methanesulfonylcyclopropyl)pyrimidin-5-yl]oxy}ethyl)-1,2-dihydrospiro[indole-3,4′-piperidin]-2-one]",9.16
3,"C[C@]1(O)C[C@@H](n2cnc3cc(OCCN4CCC5(CC4)C(=O)Nc4c(I)cc(Cl)cc45)cc(C(F)(F)F)c32)C1 [Compound 453, 5-chloro-7-iodo-1′-[2-({1-[(cis)-3-hydroxy-3-methylcyclobutyl]-7-(trifluoromethyl)-1H-1,3-benzodiazol-5-yl}oxy)ethyl]-1,2-dihydrospiro[indole-3,4′-piperidin]-2-one]",1.81
4,"O=C1Nc2ccc(Cl)cc2C12CCN(CCOc1cnc(N3CC4(CC(O)C4)C3)nc1)CC2 [Compound 396, 5-chloro-1′-{2-[(2-{6-hydroxy-2-azaspiro[3.3]heptan-2-yl}pyrimidin-5-yl)oxy]ethyl}-1,2-dihydrospiro[indole-3,4′-piperidin]-2-one]",18.6
5,"CCC1(O)CN(c2ncc(OCCN3CCC4(CC3)C(=O)Nc3ccc(Cl)cc34)cn2)C1 [Compound 397, 5-chloro-1′-(2-{[2-(3-ethyl-3-hydroxyazetidin-1-yl)pyrinlidin-5-yl]oxy}ethyl)-1,2-dihydrospiro[indole-3,4′-piperidin]-2-one]",14.3
6,"C[C@]1(O)C[C@@H](n2cnc3cc(OCCN4CCC5(CC4)C(=O)Nc4ccc(C#N)cc45)cc(C(F)(F)F)c32)C1 [Compound 433, 1′-(2-((1-((cis)-3-hydroxy-3-methylcyclobutyl)-7-(trifluoromethyl)-1H-benzo[d]imidazol-5-yl)oxy)ethyl)-2-oxospiro[indoline-3,4′-piperidine]-5-carbonitrile]",2.13
7,"CC(C)(O)c1ncc(OCCN2CCC3(CC2)C(=O)Nc2ccc(Cl)cc23)cc1C(F)(F)F [Compound 371, 5-chloro-1′-(2-{[6-(2-hydroxypropan-2-yl)-5-(trifluoromethyl)pyridin-3-yl]oxy}ethyl)-1,2-dihydrospiro[indole-3,4′-piperidin]-2-one]",1.1
8,"C[C@]1(O)C[C@@H](n2c(=O)ccc3cc(OCCN4CCC5(CC4)C(=O)Nc4ccc(Cl)cc45)cnc32)C1 [Compound 323, 5-chloro-1′-[2-({7-oxo-8-[(cis)-3-hydroxy-3-methylcyclobutyl]-7,8-dihydro-1,8-naphthyridin-3-yl}oxy)ethyl]-1,2-dihydrospiro[indole-3,4′-piperidin]-2-one]",2.02
9,"C[C@]1(O)C[C@@H](n2nnc3cc(OCCN4CCC5(CC4)C(=O)Nc4ccc(Cl)cc45)cnc32)C1 [Compound 440, 5-chloro-1′-[2-({3-[(cis)-3-hydroxy-3-methylcyclobutyl]-3H-[1,2,3]triazolo[4,5-b]pyridin-6-yl}oxy)ethyl]-1,2-dihydrospiro[indole-3,4′-piperidin]-2-one]",15
10,"C[C@]1(O)C[C@@H](n2nnc3cc(OCCN4CCC5(CC4)C(=O)Nc4ccc(C#N)cc45)cc(C(F)(F)F)c32)C1 [Compound 435, 2-oxo-1′-[2-({1-[(cis)-3-hydroxy-3-methylcyclobutyl]-7-(trifluoromethyl)-1H-1,2,3-benzotriazol-5-yl}oxy)ethyl]-1,2-dihydrospiro[indole-3,4′-piperidine]-5-carbonitrile]",2.94
11,"CC(c1ncc(OCCN2CCC3(CC2)C(=O)Nc2ccc(Cl)cc23)cn1)S(C)(=O)=O (centres unmarked) [Compound 1, 5-Chloro-1′-(2-{[2-(1-methanesulfonylethyl)pyrimidin-5-yl]oxy}ethyl)-1,2-dihydrospiro[indole-3,4′-piperidin]-2-one]",18.8
12,"Cc1nc2cc(OCCN3CCC4(CC3)C(=O)Nc3ccc(Cl)cc34)cc(C(F)(F)F)c2n1[C@H]1C[C@@](C)(O)C1 [Compound 442, 5-chloro-1′-[2-({2-methyl-1-[(cis)-3-hydroxy-3-methylcyclobutyl]-7-(trifluoromethyl)-1H-1,3-benzodiazol-5-yl}oxy)ethyl]-1,2-dihydrospiro[indole-3,4′-piperidin]-2-one]",1.16
13,"CC(C)(O)c1ncc(OCCN2CCC3(CC2)C(=O)Nc2ccc(C#N)cc23)cc1C(F)(F)F [Compound 411, 1′-(2-{[6-(2-hydroxypropan-2-yl)-5-(trifluoromethyl)pyridin-3-yl]oxy}ethyl)-2-oxo-1,2-dihydrospiro[indole-3,4′-piperidine]-5-carbonitrile]",1.45
14,"C[C@]1(O)C[C@@H](n2cnc3cc(OCCN4CCC5(CC4)C(=O)Nc4ccc(Cl)cc45)cc(C(F)(F)F)c32)C1 [Compound 352, 5-chloro-1′-[2-({1-[(cis)-3-hydroxy-3-methylcyclobutyl]-7-(trifluoromethyl)-1H-1,3-benzodiazol-5-yl}oxy)ethyl]-1,2-dihydrospiro[indole-3,4′-piperidin]-2-one]",1.12
15,"C[C@]1(O)C[C@@H](n2cc3cc(OCCN4CCC5(CC4)C(=O)Nc4ccc(C#N)cc45)cc(C(F)(F)F)c3n2)C1 [Compound 428, 2-oxo-1′-[2-({2-[(cis)-3-hydroxy-3-methylcyclobutyl]-7-(trifluoromethyl)-2H-indazol-5-yl}oxy)ethyl]-1,2-dihydrospiro[indole-3,4′-piperidine]-5-carbonitrile]",12.2
16,"CC[C@]1(O)C[C@@H](N2C(=O)CCc3cc(OCCN4CCC5(CC4)C(=O)Nc4ccc(Cl)cc45)cnc32)C1 (single isomer, unassigned) [Compound 321, 5-chloro-1′-[2-({7-oxo-8-[(cis)-3-ethyl-3-hydroxycyclobutyl]-5,6,7,8-tetrahydro-1,8-naphthyridin-3-yl}oxy)ethyl]-1,2-dihydrospiro[indole-3,4′-piperidin]-2-one]",7.65
17,"CC(C)(CO)c1ncc(OCCN2CCC3(CC2)C(=O)Nc2ccc(Cl)cc23)cn1 [Compound 334, 5-chloro-1′-(2-{[2-(1-hydroxy-2-methylpropan-2-yl)pyrimidin-5-yl]oxy}ethyl)-1,2-dihydrospiro[indole-3,4′-piperidin]-2-one]",9.58
18,"CC(CO)(c1ncc(OCCN2CCC3(CC2)C(=O)Nc2ccc(Cl)cc23)cc1C(F)(F)F)S(C)(=O)=O (centres unmarked) [Compound 401, 5-chloro-1′-(2-{[6-(1-hydroxy-2-methanesulfonylpropan-2-yl)-5-(trifluoromethyl)pyridin-3-yl]oxy}ethyl)-1,2-dihydrospiro[indole-3,4′-piperidin]-2-one]",4.62
19,"C[C@]1(O)C[C@@H](N2C(=O)NCc3cc(OCCN4CCC5(CC4)C(=O)Nc4ccc(Cl)cc45)cnc32)C1 [Compound 356, 5-chloro-1′-[2-({2-oxo-1-[(cis)-3-hydroxy-3-methylcyclobutyl]-1H,2H,3H,4H-pyrido[2,3-d]pyrimidin-6-yl}oxy)ethyl]-1,2-dihydrospiro[indole-3,4′-piperidin]-2-one]",21.5
20,"C[C@]1(O)C[C@@H](n2cc3cc(OCCN4CCC5(CC4)C(=O)Nc4ccc(Cl)cc45)cc(C(F)(F)F)c3n2)C1 [Compound 427, 5-chloro-1′-[2-({2-[(cis)-3-hydroxy-3-methylcyclobutyl]-7-(trifluoromethyl)-2H-indazol-5-yl}oxy)ethyl]-1,2-dihydrospiro[indole-3,4′-piperidin]-2-one]",1.95
21,"C[C@]1(O)C[C@@H](n2cnc3cc(OCCN4CCC5(CC4)C(=O)Nc4ccc(C(F)F)cc45)cc(C(F)(F)F)c32)C1 [Compound 450, 5-(difluoromethyl)-1′-[2-({1-[(cis)-3-hydroxy-3-methylcyclobutyl]-7-(trifluoromethyl)-1H-1,3-benzodiazol-5-yl}oxy)ethyl]-1,2-dihydrospiro[indole-3,4′-piperidin]-2-one]",0.846
22,"C[C@]1(O)C[C@@H](n2ncc3cc(OCCN4CCC5(CC4)C(=O)Nc4ccc(C#N)cc45)cc(C(F)(F)F)c32)C1 [Compound 465, 2-oxo-1′-[2-({1-[(cis)-3-hydroxy-3-methylcyclobutyl]-7-(trifluoromethyl)-1H-indazol-5-yl}oxy)ethyl]-1,2-dihydrospiro[indole-3,4′-piperidine]-5-carbonitrile]",1.22
23,"C[C@]1(O)C[C@@H](n2ccc3cc(OCCN4CCC5(CC4)C(=O)Nc4ccc(Cl)cc45)cnc32)C1 [Compound 349, 5-chloro-1′-[2-({1-[(cis)-3-hydroxy-3-methylcyclobutyl]-1H-pyrrolo[2,3-b]pyridin-5-yl}oxy)ethyl]-1,2-dihydrospiro[indole-3,4′-piperidin]-2-one]",6.81
24,"Cc1nc2cc(OCCN3CCC4(CC3)C(=O)Nc3ccc(C#N)cc34)cc(C(F)(F)F)c2n1[C@H]1C[C@@](C)(O)C1 [Compound 443, 1′-[2-({2-methyl-1-[(cis)-3-hydroxy-3-methylcyclobutyl]-7-(trifluoromethyl)-1H-1,3-benzodiazol-5-yl}oxy)ethyl]-2-oxo-1,2-dihydrospiro[indole-3,4′-piperidine]-5-carbonitrile]",2.5
25,"C[C@]1(O)C[C@@H](n2nnc3cc(OCCN4CCC5(CC4)C(=O)Nc4ccc(Cl)cc45)cc(C(F)(F)F)c32)C1 [Compound 434, 5-chloro-1′-[2-({1-[(cis)-3-hydroxy-3-methylcyclobutyl]-7-(trifluoromethyl)-1H-1,2,3-benzotriazol-5-yl}oxy)ethyl]-1,2-dihydrospiro[indole-3,4′-piperidin]-2-one]",1.5
26,"[2H]C([2H])(Oc1cnc2c(c1)CCC(=O)N2[C@H]1C[C@@](C)(O)C1)C([2H])([2H])N1CCC2(CC1)C(=O)Nc1ccc(Cl)cc12 [Compound 426, 5-chloro-1′-[2-({7-oxo-8-[(cis)-3-hydroxy-3-methylcyclobutyl]-5,6,7,8-tetrahydro-1,8-naphthyridin-3-yl}oxy)(1,1,2,2-^2H4)ethyl]-1,2-dihydrospiro[indole-3,4′-piperidin]-2-one]",4.1
